Assay results taken from ChEMBL document CHEMBL4715696, “In vitro synergistic anticancer activity of the combination of T-type calcium channel blocker and chemotherapeutic agent in A549 cells” (Bioorg Med Chem Lett, 2016).

Columns and labels:
[1] = Increase in recruitment of […] p27KIP1 to CDK2 in human A549 cells assessed as fold change at 10 uM incubated for 12 hrs by immunoprecipitation/immunoblot analysis (reference value: 0.43); assay type: functional
A549 [2] = experiment: Induction of cell cycle arrest in human A549 cells assessed as accumulation at G2/M phase at 5 uM after 24 hrs by flow cytometric analysis (reference value: 21.6%); assay type: functional
A549 [3] = experiment: Induction of cell cycle arrest in human A549 cells assessed as accumulation at G1 phase at 5 uM after 48 hrs by flow cytometric analysis (reference value: 57.8 to 65.5%); assay type: functional
A549 [4] = experiment: Decrease in cell cycle associated protein expression in human A549 cells assessed as fold change in CDK2 expression at 10 uM after 6 hrs by Western blot analysis (reference value: 0.79); assay type: functional
A549 [5] = experiment: Decrease in cell cycle associated protein expression in human A549 cells assessed as fold change in CDK2 expression at 10 uM after 12 hrs by Western blot analysis (reference value: 0.79); assay type: functional
A549 [6] = experiment: Decrease in cell cycle associated protein expression in human A549 cells assessed as fold change in CDK2 expression at 10 uM after 36 hrs by Western blot analysis (reference value: 0.79); assay type: functional
A549 [7] = experiment: Decrease in cell cycle associated protein expression in human A549 cells assessed as fold change in CDK4 expression at 10 uM after 36 hrs by Western blot analysis (reference value: 0.87); assay type: functional
A549 [8] = experiment: Decrease in cell cycle associated protein expression in human A549 cells assessed as fold change in CDK6 expression at 5 uM after 48 hrs by Western blot analysis (reference value: 1.05); assay type: functional
A549 [9] = experiment: Decrease in cell cycle associated protein expression in human A549 cells assessed as reduction in CDK6 expression at 10 uM by Western blot analysis; assay type: functional, cell-based; details: time 6-48 hrs, TDE = time-dependent effect
A549 [10] = experiment: Decrease in cell cycle associated protein expression in human A549 cells assessed as fold change in CDK6 expression at 10 uM after 12 hrs by Western blot analysis (reference value: 0.7); assay type: functional
A549 [11] = experiment: Decrease in cell cycle associated protein expression in human A549 cells assessed as fold change in cyclin D2 expression at 5 uM after 48 hrs by Western blot analysis (reference value: 0.46); assay type: functional
A549 [12] = experiment: Decrease in cell cycle associated protein expression in human A549 cells assessed as fold change in cyclin D2 expression at 10 uM after 48 hrs by Western blot analysis (reference value: 0.46 to 0.77); assay type: functional
A549 [13] = experiment: Decrease in cell cycle associated protein expression in human A549 cells assessed as fold change in cyclin D2 expression at 10 uM after 36 hrs by Western blot analysis (reference value: 0.77); assay type: functional
A549 [14] = experiment: Decrease in cell cycle associated protein expression in human A549 cells assessed as fold change in cyclin D3 expression at 2.5 uM after 48 hrs by Western blot analysis (reference value: 0.73); assay type: functional
A549 [15] = experiment: Decrease in cell cycle associated protein expression in human A549 cells assessed as fold change in cyclin D3 expression at 10 uM after 6 hrs by Western blot analysis (reference value: 1.09); assay type: functional
A549 [16] = experiment: Decrease in cell cycle associated protein expression in human A549 cells assessed as reduction in cyclin E expression after 48 hrs by Western blot analysis; assay type: functional, cell-based; details: dose 2.5-10 µM
CYP2D6 = CYP2D6 (Homo sapiens, UniProt P10635); experiment: Inhibition of human CYP2D6 assessed as residual activity at 10 uM measured after 15 mins relative to control; assay type: ADME; details: read-out: Activity
[17] = Metabolic stability in human plasma assessed as parent compound remaining at 10 uM measured after 2 hrs; assay type: ADME, cell-free; details: read-out: Stabilty
[18] = Protein binding in human plasma at 10 uM after 4 hrs; assay type: ADME, cell-free; details: read-out: PPB (converted)
A549 [19] = experiment: Induction of cell cycle arrest in human A549 cells assessed as accumulation at sub G1 phase at 2.5 uM after 48 hrs by flow cytometric analysis (Rvb =1.9 %); assay type: functional
A549 [20] = experiment: Potentiation of cisplatin-induced cell cycle arrest in human A549 cells assessed as accumulation at sub G1 phase at 2.5 uM in presence of cisplatin after 48 hrs by flow cytometric analysis (reference value: 17%); assay type: functional
A549 [21] = experiment: Potentiation of cisplatin-induced cell cycle arrest in human A549 cells assessed as accumulation at sub G1 phase at 5 uM in presence of cisplatin after 48 hrs by flow cytometric analysis (reference value: 17%); assay type: functional
A549 [22] = experiment: Potentiation of cisplatin-induced cell cycle arrest in human A549 cells assessed as accumulation at sub G1 phase at 10 uM in presence of cisplatin after 48 hrs by flow cytometric analysis (reference value: 17%); assay type: functional
A549 [23] = experiment: Induction of cell cycle arrest in human A549 cells assessed as accumulation at G1 phase at 2.5 uM after 48 hrs by flow cytometric analysis (Rvb =65.5%); assay type: functional
A549 [24] = experiment: Potentiation of etoposide-induced cell cycle arrest in human A549 cells assessed as accumulation at G1 phase at 10 uM in presence of etoposide after 48 hrs by flow cytometric analysis (reference value: 36%); assay type: functional
A549 [25] = experiment: Potentiation of cisplatin-induced cell cycle arrest in human A549 cells assessed as accumulation at G1 phase at 2.5 uM in presence of cisplatin after 48 hrs by flow cytometric analysis (reference value: 14.4%); assay type: functional
A549 [26] = experiment: Potentiation of etoposide-induced cell cycle arrest in human A549 cells assessed as accumulation at S phase at 5 uM in presence of etoposide after 48 hrs by flow cytometric analysis (Rvb =12.3%); assay type: functional
A549 [27] = experiment: Potentiation of cisplatin-induced cell cycle arrest in human A549 cells assessed as accumulation at S phase at 2.5 uM in presence of cisplatin after 48 hrs by flow cytometric analysis (Rvb =15.8%); assay type: functional
A549 [28] = experiment: Potentiation of cisplatin-induced cell cycle arrest in human A549 cells assessed as accumulation at S phase at 10 uM in presence of cisplatin after 48 hrs by flow cytometric analysis (Rvb =15.8%); assay type: functional
A549 [29] = experiment: Induction of cell cycle arrest in human A549 cells assessed as accumulation at sub G1 phase at 10 uM after 48 hrs by flow cytometric analysis (reference value: 1.9%); assay type: functional
A549 [30] = experiment: Induction of cell cycle arrest in human A549 cells assessed as accumulation at G1 phase at 10 uM after 48 hrs by flow cytometric analysis (reference value: 65.5%); assay type: functional
A549 [31] = experiment: Induction of cell cycle arrest in human A549 cells assessed as increase in cell accumulation at G1 phase after 48 hrs by flow cytometric analysis; assay type: functional, cell-based; details: dose 2.5-10 µM
A549 [32] = experiment: Induction of cell cycle arrest in human A549 cells assessed as decrease in cell accumulation at S phase after 48 hrs by flow cytometric analysis; assay type: functional, cell-based; details: dose 2.5-10 µM
A549 [33] = experiment: Potentiation of etoposide-induced apoptosis in human A549 cells assessed as early apoptotic cells at 10 uM incubated for 48 hrs by AnnexinV-FITC/propidium iodide staining based flow cytometry (reference value: 19.1%); assay type: functional
[34] = Permeability of the compound by PAMPA assay; assay type: ADME; details: read-out: permeability

Chain of CYP2D6 (P10635 whole entry): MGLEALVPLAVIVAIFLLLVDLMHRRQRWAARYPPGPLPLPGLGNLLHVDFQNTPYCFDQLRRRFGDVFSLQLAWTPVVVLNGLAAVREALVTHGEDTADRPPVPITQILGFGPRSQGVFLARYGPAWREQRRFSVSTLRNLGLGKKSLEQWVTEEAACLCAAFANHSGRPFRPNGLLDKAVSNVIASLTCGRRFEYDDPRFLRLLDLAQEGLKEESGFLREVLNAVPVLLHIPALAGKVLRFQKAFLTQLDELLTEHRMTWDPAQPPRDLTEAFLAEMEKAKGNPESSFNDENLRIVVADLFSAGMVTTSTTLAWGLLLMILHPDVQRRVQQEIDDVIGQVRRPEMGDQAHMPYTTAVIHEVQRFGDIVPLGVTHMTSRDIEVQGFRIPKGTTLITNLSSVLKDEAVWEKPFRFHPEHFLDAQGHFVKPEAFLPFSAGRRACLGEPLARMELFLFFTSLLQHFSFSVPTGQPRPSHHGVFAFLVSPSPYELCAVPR

activity at 0.25 h, 10 µM (CYP2D6): 78.3%
remaining at 2 h, 10 µM [17]: 57.6%
fraction unbound at 4 h, 10 µM [18]: < 0.01
Papp [34]: < 1.5 ×10⁻⁶ cm/s
SMILES: CN(C)C(=O)NCCCN(C)C1=Nc2ccccc2C(CC(=O)NCc2ccc(F)cc2)N1c1ccc(C2CCCCC2)cc1 (stereo not given)
fold change (FC) [1]: 0.6
Activity (A549 [2]): 19.3%
Activity (A549 [3]): 67.7%
fold change (FC) (A549 [4]): 0.91
fold change (FC) (A549 [5]): 0.62
fold change (FC) (A549 [6]): 0.71
fold change (FC) (A549 [7]): 0.79
fold change (FC) (A549 [8]): 0.45
Activity (A549 [9]): Tde
fold change (FC) (A549 [10]): 0.64
fold change (FC) (A549 [11]): 0.52
fold change (FC) (A549 [12]): 0.18
fold change (FC) (A549 [13]): 0.61
fold change (FC) (A549 [14]): 0.74
fold change (FC) (A549 [15]): 1.23
Activity (A549 [16]): Dose-dependent effect
Activity (A549 [19]): 1.3%
Activity (A549 [20]): 18.6%
Activity (A549 [21]): 24.8%
Activity (A549 [22]): 52.3%
Activity (A549 [23]): 69.3%
Activity (A549 [24]): 7.9%
Activity (A549 [25]): 19.2%
Activity (A549 [26]): 7.9%
Activity (A549 [27]): 19.2%
Activity (A549 [28]): 6.1%
Activity (A549 [29]): 4%
Activity (A549 [30]): 77.4%
Activity (A549 [31]): Dose-dependent effect
Activity (A549 [32]): Dose-dependent effect
Activity (A549 [33]): 49.1%
